The text below walks through data of US9586963B2 (GENFIT, priority 2011, dated 2017).

For assay [1], the target named is T1, Rev-Erb alpha (Homo sapiens, UniProt P20393).
T1 sequence (P20393 284-614 limits assumed): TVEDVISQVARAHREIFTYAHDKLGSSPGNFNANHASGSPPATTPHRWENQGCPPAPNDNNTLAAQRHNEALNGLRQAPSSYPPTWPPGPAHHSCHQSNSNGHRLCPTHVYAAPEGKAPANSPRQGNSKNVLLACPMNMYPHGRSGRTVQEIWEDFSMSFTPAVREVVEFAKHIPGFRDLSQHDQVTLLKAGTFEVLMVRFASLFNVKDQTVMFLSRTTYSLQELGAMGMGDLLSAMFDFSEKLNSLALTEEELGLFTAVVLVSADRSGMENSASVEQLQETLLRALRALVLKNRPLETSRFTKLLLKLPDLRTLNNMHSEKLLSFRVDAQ
Description: M2H (mammalian two-hybrid) cellular activation assay of Rev-Erb alpha. The assay is classed as cell-based. The note with it: M2H assay, HEK293 cells, Gal4-Rev-Erb alpha / VP16-NCoR, luciferase reporter. An outline of the steps: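 Six-point dose-response, 18 h, 37 °C, serum-free, in HEK293 cells carrying a Gal4-RE luciferase reporter with Gal4-Rev-Erb alpha or beta plus VP16-NCoR (corepressor interaction readout). EC50 and TOP activation (%) derived from luminescence across four experiments.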
For orientation: Reporter assays use an easily measured gene product as a stand-in for the process of interest.

Assay [2] deals with db/db mice. The experiment in a line: In vivo evaluation in db/db mice: glycemia, HbA1c, plasma triglycerides. The following applies: once daily by gavage, 28 days. Here is the method: 7-weeks-old male db/db mice were purchased from Charles River (France). Mice were 9-weeks-old at the beginning of the study. All mice were housed 2 per cage under controlled conditions of humidity, lighting and temperature. They had free access to food (R03, SAFE) and water.
Mice were randomized according to their body weight, and the non-fasting glycaemia, and assigned to 3 different groups: • Group 1: Control_Vehicle n=8 • Group 2: Cpd-4-39 25 mg/kg n=8 • Group 3: Cpd-4-39 100 mg/kg n=8 Treatments and Sample Analysis
The treatments were administered once daily, by gavage (10 mL/kg) for 28 consecutive days (unless otherwise mentioned). For oral administrations, compound was suspended in CMC 1%+Tween 80 0.1%.
Non fasting blood glucose level was determined from tail vein blood using a glucometer (Smart Chek, Kitvia), Blood samples were withdrawn under anesthesia by retro-orbital puncture at the end of the treatment period. Tubes containing blood were rapidly centrifuged after collection (15 minutes at 4,000 rpm/4° C.) and the plasma fraction was collected. Plasma aliquots were stored at −20° C. for further analyses.
The blood concentration of glycosylated hemoglobin A1c was determined using the Randox kit for Daytona automate (Randox, cat# HA 3830) according to the manufacturer's recommendations. Total hemoglobin and HbA1c concentrations were measured and the HbA1c result was expressed as a percentage of the total hemoglobin concentration.
The triglyceride content of plasma was measured using the Randox kit for Daytona automate (Randox, cat# TR 3823) according to the manufacturer's recommendations. In this protocol, the triglycerides are hydrolyzed by a lipase. The resulting glycerol concentration is then measured by an enzymatic method and spectrophotometric measurement. Results are expressed in mg/dL. • Oral Glucose Tolerance Test
At the end of the treatment period, animals were anesthetized with isoflurane and then sacrificed by cervical dislocation. Liver, quadriceps muscle and epididymal adipose tissues were collected. […]

For assay [3], the system named is Bmal1. The experiment in a line: Gene expression of Rev-Erb alpha target gene Bmal1 in tissues of treated db/db mice. The assay is classed as in vivo. The note with it: 25 and 100 mpk, adipose tissue, muscle, liver. From the text:
At the end of the treatment period, animals were anesthetized with isoflurane and then sacrificed by cervical dislocation. Liver, quadriceps muscle and epididymal adipose tissues were collected. The Student's t-test was used to test for statistical differences between drug and vehicle treatments when a single dose of drug was used while ANOVA followed by Dunnett's Multiple Comparison post hoc test was used for dose responses.
Gene expression studies have been performed on mRNA isolated from different metabolic tissues such as liver, adipose tissue and skeletal muscle. […] is considered as a target gene of Rev-Erba. Activation of Rev-Erba activity should then translate in a reduction of […] gene expression.

Assay [4] deals with db/db mice. Description: Oral glucose tolerance test in db/db mice. The class given is in vivo. The note with it: 50 mpk. Here is the method: Oral glucose tolerance test (OGTT) was performed as followed, at day 35 of treatment, after a 16-hour fasting period, an oral glucose load was administered at T=0 (2 g/kg of glucose, 10 mL/kg) and glycemia was measured at the tail vein at T=15, 30, 60, 90, 120 & 180 minutes.
Oral glucose tolerance test is a widely used assay perform to assess the body's tolerance to an orally glucose bolus, it is considered as a good marker of insulin resistance and diabetes. […] Improvement of the body's insulin sensitivity is illustrated on FIG. 3(b).

The target in assay [5] is T2, Rev-Erb alpha (Homo sapiens, UniProt P20393).
T2 sequence (P20393 1-614): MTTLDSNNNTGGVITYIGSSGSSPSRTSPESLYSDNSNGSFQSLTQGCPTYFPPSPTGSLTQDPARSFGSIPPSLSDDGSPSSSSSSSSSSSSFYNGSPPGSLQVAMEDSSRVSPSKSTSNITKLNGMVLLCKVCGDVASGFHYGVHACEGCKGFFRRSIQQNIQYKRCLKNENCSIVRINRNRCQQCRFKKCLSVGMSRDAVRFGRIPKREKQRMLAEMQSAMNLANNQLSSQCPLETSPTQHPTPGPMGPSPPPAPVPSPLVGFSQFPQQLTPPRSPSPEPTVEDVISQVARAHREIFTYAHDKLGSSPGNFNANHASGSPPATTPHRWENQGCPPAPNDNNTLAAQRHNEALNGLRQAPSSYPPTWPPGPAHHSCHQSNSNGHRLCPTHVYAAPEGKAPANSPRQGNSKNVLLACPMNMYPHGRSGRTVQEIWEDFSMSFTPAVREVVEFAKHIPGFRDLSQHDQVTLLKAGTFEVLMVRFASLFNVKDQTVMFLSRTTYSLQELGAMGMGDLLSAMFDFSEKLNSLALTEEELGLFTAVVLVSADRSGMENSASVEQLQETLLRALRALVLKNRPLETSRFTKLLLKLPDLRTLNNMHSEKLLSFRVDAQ
The note with it: Moore J T et al., 2006; cited from earlier work.

Usually EC50 stands for the midpoint of the concentration-response curve. The molecule `FC(F)(F)c1ccc(-c2cccnc2)c(Oc2ccc3nnc(Cl)n3n2)c1` came in with an EC50 in assay [1] of 100 to 1000 nM. In assay [2] (25 and 100 mpk), the Circulating triglycerides result is recorded as “reduced” and the HbA1c result is “significantly reduced”. Also, the glycemia entry in assay [2] (100 mpk, compared to control mice) is given as “significantly reduced”. Moreover, the “Small expression in the studied organs (Bmal1 gene expression, FIGS. 13)” value in assay [3] is “significant inhibition”. The “area under the curve, glucose tolerance” value in assay [4] (OGTT) is “Cpd-4-39 dependent effect on glucose tolerance”. Further, the “evolution of blood glucose in oral glucose tolerance test” value in assay [4] (day 35, 16-hour fasting, 2 g/kg glucose) was “improved evolution of their blood glucose”.
In general, Kd refers to the concentration at which binding is half-saturated. In the case of `C=CC1=C(C)c2cc3[n-]c(cc4[n-]c(cc5nc(cc1n2)C(C)=C5C=C)c(C)c4CCC(=O)O)c(CCC(=O)O)c3C.[Fe+2]` [Heme], in assay [5], the Kd was 2000 to 3000 nM.
